According to patent US4251444A, “Thiazepino-[4,3-b]-isoquinoline-1,5-dione derivatives and precursors” (American Home Products Corporation, priority 1980, dated 1981):

System: male spontaneously hypertensive rats
Experiment: blood pressure lowering, systolic pressure by Decker Caudal Plethysmograph
Assay type: in vivo
Settings: four hours after administration of a 50 milligram dose; standard experimental rat, oral
Method: The compounds tested were administered orally and blood pressure was read prior to and at 1.5, 4 and 24 hours after drug administration.

## CC(CSC(=O)c1ccccc1)C(=O)N1Cc2ccccc2CC1C(=O)O (single isomer, unassigned) [Example 4, 2-(3-Benzoylthio-2-methylpropanoyl)-1,2,3,4-tetrahydroisoquinoline-3-carboxylic acid]
  reduction of blood pressure: 29 millimeters
